Results taken from ChEMBL document CHEMBL5291721, “A preclinical secondary pharmacology resource illuminates target-adverse drug reaction associations of marketed drugs” (Nat Commun, 2023).

What was measured:
[1] = target: Bile salt export pump (Homo sapiens, UniProt O95342); type: functional
[2] = target: Voltage-gated inwardly rectifying potassium channel KCNH2 (Homo sapiens, UniProt Q12809); type: functional
[3] = target: T1, Muscarinic acetylcholine receptor M2 (Homo sapiens, UniProt P08172)
T1 sequence (P08172 whole entry): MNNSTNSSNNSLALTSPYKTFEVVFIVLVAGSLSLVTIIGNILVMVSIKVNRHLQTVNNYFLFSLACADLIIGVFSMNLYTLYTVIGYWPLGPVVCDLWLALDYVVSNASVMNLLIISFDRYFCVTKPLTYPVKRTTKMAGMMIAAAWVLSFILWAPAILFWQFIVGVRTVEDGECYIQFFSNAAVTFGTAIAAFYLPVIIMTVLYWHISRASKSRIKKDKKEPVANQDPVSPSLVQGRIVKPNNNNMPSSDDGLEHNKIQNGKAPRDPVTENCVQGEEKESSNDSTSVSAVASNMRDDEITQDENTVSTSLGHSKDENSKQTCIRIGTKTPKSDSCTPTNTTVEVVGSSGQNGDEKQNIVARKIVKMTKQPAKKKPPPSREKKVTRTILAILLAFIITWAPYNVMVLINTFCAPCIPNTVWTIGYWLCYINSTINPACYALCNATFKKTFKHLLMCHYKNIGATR

[4] = target: Histamine H3 receptor (Homo sapiens, UniProt Q9Y5N1)
[5] = target: T2, 5-hydroxytryptamine receptor 1A (Homo sapiens, UniProt P08908)
T2 sequence (P08908 whole entry): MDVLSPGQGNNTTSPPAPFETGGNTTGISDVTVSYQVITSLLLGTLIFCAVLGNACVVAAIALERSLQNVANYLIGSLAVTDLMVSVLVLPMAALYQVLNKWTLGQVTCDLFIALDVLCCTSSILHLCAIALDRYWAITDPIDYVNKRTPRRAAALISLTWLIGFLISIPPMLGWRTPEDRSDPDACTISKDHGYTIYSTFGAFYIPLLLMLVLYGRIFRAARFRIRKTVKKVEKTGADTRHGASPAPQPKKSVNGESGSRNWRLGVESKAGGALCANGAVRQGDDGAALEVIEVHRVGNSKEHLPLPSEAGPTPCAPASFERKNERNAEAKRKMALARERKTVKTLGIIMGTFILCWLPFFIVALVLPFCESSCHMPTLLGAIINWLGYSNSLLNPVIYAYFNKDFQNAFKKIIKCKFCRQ

[6] = target: 5-hydroxytryptamine receptor 2B (Homo sapiens, UniProt P41595); type: functional, cell-based
[7] = target: Mu-type opioid receptor (Homo sapiens, UniProt P35372)
[8] = target: cGMP-inhibited 3',5'-cyclic phosphodiesterase 3A (Homo sapiens, UniProt Q14432); type: functional
[9] = target: T3, Progesterone receptor (Homo sapiens, UniProt P06401)
T3 sequence (P06401 whole entry): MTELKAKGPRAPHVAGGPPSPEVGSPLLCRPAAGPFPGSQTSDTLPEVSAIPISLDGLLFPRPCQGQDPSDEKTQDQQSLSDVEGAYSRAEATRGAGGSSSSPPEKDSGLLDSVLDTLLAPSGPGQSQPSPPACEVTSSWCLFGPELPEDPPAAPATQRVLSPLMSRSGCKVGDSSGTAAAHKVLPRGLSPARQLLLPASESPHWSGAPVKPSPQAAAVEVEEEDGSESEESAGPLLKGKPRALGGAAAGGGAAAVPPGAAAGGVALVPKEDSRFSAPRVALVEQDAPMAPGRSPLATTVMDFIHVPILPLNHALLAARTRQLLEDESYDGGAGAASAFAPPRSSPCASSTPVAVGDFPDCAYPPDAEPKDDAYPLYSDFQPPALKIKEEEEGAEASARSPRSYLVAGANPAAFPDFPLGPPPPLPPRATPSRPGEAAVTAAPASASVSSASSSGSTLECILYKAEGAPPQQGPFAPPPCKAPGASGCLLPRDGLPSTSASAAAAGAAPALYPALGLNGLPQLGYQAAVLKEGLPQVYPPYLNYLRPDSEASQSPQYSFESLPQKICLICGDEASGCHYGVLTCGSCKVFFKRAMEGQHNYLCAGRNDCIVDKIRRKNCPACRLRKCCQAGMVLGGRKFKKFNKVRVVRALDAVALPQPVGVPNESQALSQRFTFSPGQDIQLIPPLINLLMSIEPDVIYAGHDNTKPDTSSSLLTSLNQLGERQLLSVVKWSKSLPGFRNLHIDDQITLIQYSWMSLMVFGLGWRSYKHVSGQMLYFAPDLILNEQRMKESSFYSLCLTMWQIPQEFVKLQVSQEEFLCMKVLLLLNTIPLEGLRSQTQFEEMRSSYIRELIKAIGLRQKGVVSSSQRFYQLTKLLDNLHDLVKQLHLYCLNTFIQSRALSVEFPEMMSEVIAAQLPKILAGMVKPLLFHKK

[10] = target: T4, Thromboxane A2 receptor (Homo sapiens, UniProt P21731); type: functional, cell-based
T4 sequence (P21731 whole entry): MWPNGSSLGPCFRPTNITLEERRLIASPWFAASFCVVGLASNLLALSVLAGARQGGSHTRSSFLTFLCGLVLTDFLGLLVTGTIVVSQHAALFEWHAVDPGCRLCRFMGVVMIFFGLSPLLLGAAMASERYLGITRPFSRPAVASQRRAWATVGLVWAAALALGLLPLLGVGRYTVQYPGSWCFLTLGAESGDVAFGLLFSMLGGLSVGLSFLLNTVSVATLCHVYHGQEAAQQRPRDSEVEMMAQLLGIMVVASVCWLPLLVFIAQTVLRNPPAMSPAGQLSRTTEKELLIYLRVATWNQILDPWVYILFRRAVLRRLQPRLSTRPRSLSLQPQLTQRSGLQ

[11] = target: T4, Thromboxane A2 receptor; type: functional, cell-based; remark: listed apart in the source
[12] = target: Prostaglandin G/H synthase 1 (Homo sapiens, UniProt P23219); type: functional
Further: assay procedure not described here.

Chain of 5-hydroxytryptamine receptor 2B (P41595 whole entry): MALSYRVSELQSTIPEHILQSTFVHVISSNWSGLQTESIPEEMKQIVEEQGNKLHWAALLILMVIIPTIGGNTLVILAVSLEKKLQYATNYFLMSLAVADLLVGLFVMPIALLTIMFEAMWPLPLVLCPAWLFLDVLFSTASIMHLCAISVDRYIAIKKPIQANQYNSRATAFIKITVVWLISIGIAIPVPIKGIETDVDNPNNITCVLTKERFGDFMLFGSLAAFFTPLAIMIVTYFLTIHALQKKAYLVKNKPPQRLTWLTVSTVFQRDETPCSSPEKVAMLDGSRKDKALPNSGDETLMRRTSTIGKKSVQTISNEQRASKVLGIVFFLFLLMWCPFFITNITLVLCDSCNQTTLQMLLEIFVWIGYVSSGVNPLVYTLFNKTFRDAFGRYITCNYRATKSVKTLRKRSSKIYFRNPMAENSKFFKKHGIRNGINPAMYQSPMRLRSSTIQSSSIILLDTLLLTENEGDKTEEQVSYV
Chain of Bile salt export pump (O95342 whole entry): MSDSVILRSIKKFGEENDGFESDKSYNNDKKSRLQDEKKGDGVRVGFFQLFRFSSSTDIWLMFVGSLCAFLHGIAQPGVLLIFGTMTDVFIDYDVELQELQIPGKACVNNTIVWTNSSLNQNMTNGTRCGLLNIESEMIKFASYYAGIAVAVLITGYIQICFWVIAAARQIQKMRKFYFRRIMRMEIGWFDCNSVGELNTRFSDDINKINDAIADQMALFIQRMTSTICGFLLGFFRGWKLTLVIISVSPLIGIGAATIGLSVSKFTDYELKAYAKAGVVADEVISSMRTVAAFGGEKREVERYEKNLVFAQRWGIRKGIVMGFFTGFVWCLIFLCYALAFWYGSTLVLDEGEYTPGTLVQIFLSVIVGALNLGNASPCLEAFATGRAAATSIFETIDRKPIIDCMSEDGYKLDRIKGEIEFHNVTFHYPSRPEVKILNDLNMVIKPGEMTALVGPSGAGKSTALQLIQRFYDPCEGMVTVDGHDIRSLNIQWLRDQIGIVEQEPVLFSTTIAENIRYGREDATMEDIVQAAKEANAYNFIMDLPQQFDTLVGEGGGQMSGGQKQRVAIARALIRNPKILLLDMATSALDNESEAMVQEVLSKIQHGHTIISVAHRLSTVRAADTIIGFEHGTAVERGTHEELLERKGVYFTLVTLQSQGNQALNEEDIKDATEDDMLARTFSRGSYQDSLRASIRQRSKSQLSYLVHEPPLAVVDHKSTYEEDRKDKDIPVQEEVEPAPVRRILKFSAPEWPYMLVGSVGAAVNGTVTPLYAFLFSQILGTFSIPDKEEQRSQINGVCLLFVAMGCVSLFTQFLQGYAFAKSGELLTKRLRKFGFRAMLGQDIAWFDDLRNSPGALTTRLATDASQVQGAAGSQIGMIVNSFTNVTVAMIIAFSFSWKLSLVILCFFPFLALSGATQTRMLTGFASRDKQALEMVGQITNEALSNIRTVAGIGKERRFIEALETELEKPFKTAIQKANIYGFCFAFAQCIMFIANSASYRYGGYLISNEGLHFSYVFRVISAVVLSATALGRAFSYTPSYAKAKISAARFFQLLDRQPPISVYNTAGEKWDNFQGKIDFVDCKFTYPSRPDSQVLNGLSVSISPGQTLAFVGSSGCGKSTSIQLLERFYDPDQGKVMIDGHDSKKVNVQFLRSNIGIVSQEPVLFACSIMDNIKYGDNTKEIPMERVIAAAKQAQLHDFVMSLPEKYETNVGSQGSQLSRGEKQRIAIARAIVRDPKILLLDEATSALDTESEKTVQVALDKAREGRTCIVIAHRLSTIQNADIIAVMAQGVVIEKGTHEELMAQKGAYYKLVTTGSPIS
Chain of Voltage-gated inwardly rectifying potassium channel KCNH2 (Q12809 whole entry): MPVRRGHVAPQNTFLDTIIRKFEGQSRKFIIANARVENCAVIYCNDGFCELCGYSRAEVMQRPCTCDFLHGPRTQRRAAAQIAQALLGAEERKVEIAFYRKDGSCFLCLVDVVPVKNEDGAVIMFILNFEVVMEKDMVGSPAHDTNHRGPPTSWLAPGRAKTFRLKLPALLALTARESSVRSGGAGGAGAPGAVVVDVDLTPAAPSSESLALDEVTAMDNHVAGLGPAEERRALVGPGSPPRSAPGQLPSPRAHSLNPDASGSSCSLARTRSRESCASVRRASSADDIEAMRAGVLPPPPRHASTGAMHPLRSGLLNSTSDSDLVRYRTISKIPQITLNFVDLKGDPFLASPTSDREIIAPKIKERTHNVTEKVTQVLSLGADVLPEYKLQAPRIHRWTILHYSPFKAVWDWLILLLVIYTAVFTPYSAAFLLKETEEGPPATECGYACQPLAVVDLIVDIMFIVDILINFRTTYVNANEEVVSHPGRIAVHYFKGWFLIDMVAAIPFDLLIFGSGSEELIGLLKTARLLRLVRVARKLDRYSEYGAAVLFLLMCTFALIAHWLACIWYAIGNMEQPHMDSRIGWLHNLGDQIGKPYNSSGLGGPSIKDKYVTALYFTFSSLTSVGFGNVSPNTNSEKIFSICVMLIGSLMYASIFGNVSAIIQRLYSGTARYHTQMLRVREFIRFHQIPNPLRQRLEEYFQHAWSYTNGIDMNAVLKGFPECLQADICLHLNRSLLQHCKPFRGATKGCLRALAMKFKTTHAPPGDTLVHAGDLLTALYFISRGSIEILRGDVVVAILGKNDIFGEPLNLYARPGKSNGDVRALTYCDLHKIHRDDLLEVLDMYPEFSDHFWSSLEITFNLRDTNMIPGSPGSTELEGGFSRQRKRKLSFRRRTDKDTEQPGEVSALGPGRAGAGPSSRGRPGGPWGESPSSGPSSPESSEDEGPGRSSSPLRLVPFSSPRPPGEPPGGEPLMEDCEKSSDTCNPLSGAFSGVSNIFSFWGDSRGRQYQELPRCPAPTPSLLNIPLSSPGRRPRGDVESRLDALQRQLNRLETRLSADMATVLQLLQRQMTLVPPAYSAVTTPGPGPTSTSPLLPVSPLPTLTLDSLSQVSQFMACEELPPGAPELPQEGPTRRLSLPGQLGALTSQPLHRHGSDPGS
Chain of cGMP-inhibited 3',5'-cyclic phosphodiesterase 3A (Q14432 whole entry): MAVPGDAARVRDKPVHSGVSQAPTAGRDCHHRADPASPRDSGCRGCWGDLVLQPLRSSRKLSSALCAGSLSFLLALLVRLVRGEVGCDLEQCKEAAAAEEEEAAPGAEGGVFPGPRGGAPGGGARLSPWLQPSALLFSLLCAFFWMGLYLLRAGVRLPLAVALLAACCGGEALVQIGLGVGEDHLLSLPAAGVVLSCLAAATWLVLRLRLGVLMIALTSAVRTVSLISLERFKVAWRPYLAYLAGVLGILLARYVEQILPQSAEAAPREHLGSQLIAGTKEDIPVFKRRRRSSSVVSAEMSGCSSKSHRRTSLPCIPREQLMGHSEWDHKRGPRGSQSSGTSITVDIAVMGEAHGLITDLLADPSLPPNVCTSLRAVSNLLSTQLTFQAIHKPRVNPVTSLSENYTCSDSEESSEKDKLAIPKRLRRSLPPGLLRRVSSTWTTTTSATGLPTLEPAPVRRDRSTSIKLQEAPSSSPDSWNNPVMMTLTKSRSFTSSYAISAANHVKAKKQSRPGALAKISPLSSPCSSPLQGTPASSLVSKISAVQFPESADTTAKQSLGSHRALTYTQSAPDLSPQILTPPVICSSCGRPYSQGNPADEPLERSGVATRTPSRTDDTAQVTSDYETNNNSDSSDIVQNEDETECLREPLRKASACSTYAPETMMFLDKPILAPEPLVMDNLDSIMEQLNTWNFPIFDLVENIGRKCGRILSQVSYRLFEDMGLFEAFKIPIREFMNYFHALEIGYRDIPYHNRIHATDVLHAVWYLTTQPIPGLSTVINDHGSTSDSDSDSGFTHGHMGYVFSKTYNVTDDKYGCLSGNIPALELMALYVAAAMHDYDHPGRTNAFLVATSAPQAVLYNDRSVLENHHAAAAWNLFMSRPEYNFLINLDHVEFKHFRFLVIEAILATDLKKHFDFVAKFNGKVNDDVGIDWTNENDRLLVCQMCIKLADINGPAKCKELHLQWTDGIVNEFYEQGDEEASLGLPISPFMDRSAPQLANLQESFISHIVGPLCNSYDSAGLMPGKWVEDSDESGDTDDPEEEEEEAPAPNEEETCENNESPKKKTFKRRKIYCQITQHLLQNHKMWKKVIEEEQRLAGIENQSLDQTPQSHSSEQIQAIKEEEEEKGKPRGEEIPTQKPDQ
Chain of Mu-type opioid receptor (P35372 whole entry): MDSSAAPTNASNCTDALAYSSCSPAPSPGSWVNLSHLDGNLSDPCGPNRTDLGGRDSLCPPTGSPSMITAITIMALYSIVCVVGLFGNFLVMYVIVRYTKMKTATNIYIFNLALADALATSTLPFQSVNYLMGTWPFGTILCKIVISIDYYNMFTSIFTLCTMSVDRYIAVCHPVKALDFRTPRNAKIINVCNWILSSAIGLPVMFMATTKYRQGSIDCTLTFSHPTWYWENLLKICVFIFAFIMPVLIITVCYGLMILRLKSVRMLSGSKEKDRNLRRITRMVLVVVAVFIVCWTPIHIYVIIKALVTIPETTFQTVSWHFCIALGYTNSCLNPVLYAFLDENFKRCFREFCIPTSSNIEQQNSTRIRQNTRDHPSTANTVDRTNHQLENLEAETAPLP
Chain of Histamine H3 receptor (Q9Y5N1 whole entry): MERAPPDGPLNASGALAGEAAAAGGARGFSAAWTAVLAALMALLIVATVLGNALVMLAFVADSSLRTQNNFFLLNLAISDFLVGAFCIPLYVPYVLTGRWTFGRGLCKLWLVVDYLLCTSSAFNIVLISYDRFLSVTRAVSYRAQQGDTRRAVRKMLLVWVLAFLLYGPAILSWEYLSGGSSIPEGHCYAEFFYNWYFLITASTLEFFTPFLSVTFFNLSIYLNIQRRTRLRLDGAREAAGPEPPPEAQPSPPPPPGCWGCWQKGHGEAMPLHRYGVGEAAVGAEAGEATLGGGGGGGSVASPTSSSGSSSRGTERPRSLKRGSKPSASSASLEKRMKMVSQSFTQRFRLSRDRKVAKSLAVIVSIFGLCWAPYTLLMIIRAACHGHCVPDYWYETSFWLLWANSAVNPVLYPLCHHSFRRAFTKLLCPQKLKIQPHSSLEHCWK

SMILES	AC50 [1]	AC50 [2]	other results
CO[C@H]1/C=C/O[C@@]2(C)Oc3c(C)c(O)c4c(O)c(c(/C=N/N5CCN(C)CC5)c(O)c4c3C2=O)NC(=O)/C(C)=C\C=C\[C@H](C)[C@H](O)[C@@H](C)[C@@H](O)[C@@H](C)[C@H](OC(C)=O)[C@@H]1C [RIFAMPIN]	9.6 µM	> 30 µM	
N[C@@H](CC(=O)N1CCn2c(nnc2C(F)(F)F)C1)Cc1cc(F)c(F)cc1F [SITAGLIPTIN]	> 300 µM		
O=C1C(CC[S+]([O-])c2ccccc2)C(=O)N(c2ccccc2)N1c1ccccc1 (stereo unspecified) [SULFINPYRAZONE]	24 µM	> 30 µM	
CC(C)Cc1ccc(C(C)C(=O)O)cc1 (stereo unspecified) [IBUPROFEN]	> 300 µM		AC50 [3]: > 30 µM; AC50 [4]: > 30 µM; AC50 [5]: > 30 µM; AC50 [6]: > 30 µM; AC50 [7]: > 30 µM; AC50 [8]: > 30 µM; AC50 [9]: > 30 µM; AC50 [10]: > 30 µM; AC50 [11]: > 30 µM
CC(N)C12CC3CC(CC(C3)C1)C2 (stereo unspecified) [RIMANTADINE]	> 300 µM	> 30 µM	
COc1cc2nc(N3CCN(C(=O)C4CCCO4)CC3)nc(N)c2cc1OC (stereo unspecified) [TERAZOSIN]	> 300 µM		AC50 [3]: > 30 µM; AC50 [4]: > 30 µM; AC50 [5]: > 30 µM; AC50 [6]: > 30 µM; AC50 [7]: > 30 µM; AC50 [8]: > 30 µM; AC50 [12]: > 30 µM; AC50 [10]: > 30 µM; AC50 [11]: > 30 µM
CC(C)N(CCC(C(N)=O)(c1ccccc1)c1ccccn1)C(C)C (stereo unspecified) [DISOPYRAMIDE]	> 300 µM		
CN(C)CCC[C@@]1(c2ccc(F)cc2)OCc2cc(C#N)ccc21 [ESCITALOPRAM]	> 300 µM		
Nc1ccc(S(=O)(=O)Nc2nccs2)cc1 [SULFATHIAZOLE]	> 300 µM	> 30 µM	
C[C@H](CCC(=O)O)[C@H]1CC[C@H]2[C@@H]3[C@@H](O)C[C@@H]4C[C@H](O)CC[C@]4(C)[C@H]3CC[C@]12C [URSODIOL]	95 µM	> 30 µM	
CN1C[C@H](C(=O)N[C@]2(C)O[C@@]3(O)[C@@H]4CCCN4C(=O)[C@H](Cc4ccccc4)N3C2=O)C=C2c3cccc4[nH]cc(c34)C[C@H]21 [ERGOTAMINE]	25 µM	14.4 µM	
C=CC[C@@H]1/C=C(\C)C[C@H](C)C[C@H](OC)[C@H]2O[C@@](O)(C(=O)C(=O)N3CCCC[C@H]3C(=O)O[C@H](/C(C)=C/[C@@H]3CC[C@@H](O)[C@H](OC)C3)[C@H](C)[C@@H](O)CC1=O)[C@H](C)C[C@@H]2OC [TACROLIMUS ANHYDROUS]	11 µM	> 30 µM	
CN(C)CCc1c[nH]c2ccc(Cn3cncn3)cc12 [RIZATRIPTAN]	> 300 µM	> 30 µM	
COc1ccccc1Oc1c(NS(=O)(=O)c2ccc(C(C)(C)C)cc2)nc(-c2ncccn2)nc1OCCO [BOSENTAN]	18 µM	> 30 µM	
C[C@]12C=CC(=O)N[C@@H]1CC[C@@H]1[C@@H]2CC[C@]2(C)[C@@H](C(=O)Nc3cc(C(F)(F)F)ccc3C(F)(F)F)CC[C@@H]12 [DUTASTERIDE]	14 µM	> 30 µM	
Cc1onc(-c2ccccc2)c1-c1ccc(S(N)(=O)=O)cc1 [VALDECOXIB]	240 µM	> 30 µM	AC50 [3]: > 30 µM; AC50 [4]: > 30 µM; AC50 [5]: > 30 µM; AC50 [6]: > 30 µM; AC50 [7]: > 30 µM; AC50 [8]: > 30 µM; AC50 [9]: > 30 µM; AC50 [10]: > 30 µM; AC50 [11]: > 30 µM
CC(C)c1nc(N(C)S(C)(=O)=O)nc(-c2ccc(F)cc2)c1/C=C/[C@@H](O)C[C@@H](O)CC(=O)O [ROSUVASTATIN]	160 µM	> 30 µM	

SMILES	AC50 [1]	AC50 [2]	other results
C[C@H]1c2cccc(O)c2C(=O)C2=C(O)[C@]3(O)C(=O)C(C(N)=O)=C(O)[C@@H](N(C)C)[C@@H]3[C@@H](O)[C@@H]21 [DOXYCYCLINE]	> 300 µM	> 30 µM	
CN(C)CC[C@@H](c1ccc(Cl)cc1)c1ccccn1 [DEXCHLORPHENIRAMINE]	> 300 µM		
CC(S)C(=O)NCC(=O)O (stereo unspecified) [TIOPRONIN]	> 300 µM	> 30 µM	
CCN1CCN(Cc2ccc(Nc3ncc(F)c(-c4cc(F)c5nc(C)n(C(C)C)c5c4)n3)nc2)CC1 [ABEMACICLIB]	33 µM	6 µM	
CN1C(C(=O)Nc2ccccn2)=C(O)c2ccccc2S1(=O)=O [PIROXICAM]	200 µM	> 30 µM	AC50 [3]: > 30 µM; AC50 [4]: > 30 µM; AC50 [5]: > 30 µM; AC50 [6]: > 30 µM; AC50 [7]: > 30 µM; AC50 [8]: > 30 µM; AC50 [9]: > 30 µM; AC50 [10]: > 30 µM; AC50 [11]: > 30 µM
CC(C(=O)O)c1ccc2c(c1)[nH]c1ccc(Cl)cc12 (stereo unspecified) [CARPROFEN]	120 µM	> 30 µM	
COc1ccc(CC2c3cc(OC)c(OC)cc3CC[N+]2(C)CCC(=O)OCCCCCOC(=O)CC[N+]2(C)CCc3cc(OC)c(OC)cc3C2Cc2ccc(OC)c(OC)c2)cc1OC (stereo unspecified)	170 µM	0.16 µM	
COc1ccccc1OCCNCC(O)COc1cccc2[nH]c3ccccc3c12 (stereo unspecified) [CARVEDILOL]	79 µM		
CC(C)(C)NCC(O)c1cc(O)cc(O)c1 (stereo unspecified) [TERBUTALINE]	> 300 µM	> 30 µM	
C[C@@H](Oc1cc(-c2cnn(C3CCNCC3)c2)cnc1N)c1c(Cl)ccc(F)c1Cl [CRIZOTINIB]	154 µM		
O=C1CN(/N=C/c2ccc(-c3ccc([N+](=O)[O-])cc3)o2)C(O)=N1 [DANTROLENE]	35 µM	> 30 µM	
C=C[C@H]1C[N@@]2CC[C@H]1C[C@@H]2[C@@H](O)c1ccnc2ccc(OC)cc12 [QUINIDINE]	64 µM		
N[C@@H](CO)C(=O)O [SERINE]		> 30 µM	AC50 [3]: > 30 µM; AC50 [4]: > 30 µM; AC50 [5]: > 30 µM; AC50 [6]: > 30 µM; AC50 [7]: > 30 µM; AC50 [8]: > 30 µM; AC50 [9]: > 30 µM; AC50 [12]: > 30 µM; AC50 [10]: > 30 µM; AC50 [11]: > 30 µM
CCN(CC)CCNC(=O)c1c(C)[nH]c(/C=C2\C(=O)Nc3ccc(F)cc32)c1C [SUNITINIB]	34 µM		
O=C1CCc2cc(OCCCCc3nnnn3C3CCCCC3)ccc2N1 [CILOSTAZOL]	62 µM	> 30 µM	
C[C@@H](NCCCc1cccc(C(F)(F)F)c1)c1cccc2ccccc12	58 µM	1.3 µM	
